Source: publication PMC10844371 (Diabetologia, 2023)
Where two headings read alike, the source gives them in different places.

Assays:
[1] = tested on: isolated mouse pancreatic islets; type: cell-based; settings: for glucagon secretion, % of that at 1 mmol/l glucose: mean ± SEM
Experimental: Experiments were conducted as previously described. Islets were incubated in 0.3 ml EC1 or EC2 media (ESM Table 2) supplemented with glucose and other reagents as indicated.
All data are reported, unless otherwise stated, as mean values ± SEM for the indicated number of experiments using islets from multiple mice. For hormone release studies, islets were isolated and pooled from 4–16 mice. These islets were then subdivided into groups of 12–20 size-matched islets. Each unique set of islets counted as an experiment with the experiments repeated on 2–4 days. Similarly, each unique group of human islets was treated as an experiment. […] In the Ca^2+ imaging and granule docking experiment, each cell represents an experiment making sure that cells from multiple donors/animals were used. For the in vivo experiments and the perfused pancreas, each mouse count represents an experiment. For two groupings, a t test was conducted. For multiple comparisons, one-way ANOVA was conducted. All statistical tests were performed using Graphpad Prism (version 9.1.0; graphpad.com).

[2] = tested on: P/Q-type Ca^2+ channels; test: [Ca2+]i imaging of depolarisation-evoked Ca2+ entry in alpha cells (Gcg-GCaMP6f islets); type: cell-based, mouse; settings: 10 pmol/l, 70 mmol/l [K+]o, isradipine 10 μmol/l; n=139 cells from 4 mice
Experimental: For live-cell cytoplasmic free Ca^2+ concentration ([Ca^2+]i) imaging experiments, Gcg-GCaMP6f islets were immobilised to a poly-L-lysine-coated coverslip fixed in a custom-built imaging chamber filled with EC3 (ESM Table 2). [Ca^2+]i was measured in islets from mice expressing GCaMP6f in alpha cells. [Ca^2+]i imaging experiments were then performed using an inverted LSM 510 confocal microscope (Zeiss) controlled with ZEN Black (Zeiss), using a ×40/1.3 oil immersion objective. Time-lapse images were collected every 0.98 s with a frame size of 256×256 pixels, with the bath solution (EC3) perfused at a rate of 0.4 ml/min and heated to 37°C. GCaMP6f was excited by an argon laser (488 nm) and emission was collected at 510 nm.
[Ca^2+]i imaging videos were analysed using the Fiji imaging processing package. The mean fluorescence (F) of each region of interest was normalised to baseline signal (F0) and expressed as F/F0 before exporting into ClampFit (version 10.7; Molecular Devices, CA, USA), where baseline was corrected and AUC was calculated.

Question: With CC[C@H](C)[C@H](NC(=O)[C@H](Cc1ccccc1)NC(=O)[C@H](CCC(=O)O)NC(=O)[C@H](CCCCN)NC(=O)[C@H](C)NC(=O)[C@H](C)NC(=O)[C@H](CCC(N)=O)NC(=O)CNC(=O)[C@H](CCC(=O)O)NC(=O)[C@H](CC(C)C)NC(=O)[C@H](Cc1ccc(O)cc1)NC(=O)[C@H](CO)NC(=O)[C@H](CO)NC(=O)[C@@H](NC(=O)[C@H](CC(=O)O)NC(=O)[C@H](CO)NC(=O)[C@@H](NC(=O)[C@H](Cc1ccccc1)NC(=O)[C@@H](NC(=O)CNC(=O)[C@@H](N)CCC(=O)O)[C@@H](C)O)[C@@H](C)O)C(C)C)C(=O)N[C@@H](C)C(=O)N[C@@H](Cc1c[nH]c2ccccc12)C(=O)N[C@@H](CC(C)C)C(=O)N[C@H](C(=O)N[C@@H](CCCCN)C(=O)NCC(=O)N[C@@H](CCCNC(=N)N)C(N)=O)C(C)C [GLP-1(9–36)] as the compound, how does the “glucagon secretion, % of that at 1 mmol/l glucose” value ([1]; 10 pmol/l GLP-1(9–36) in the presence of REMD2.59 100 nmol/l) read?
Answer: 110±4%

Question: What about the “inhibitory effect on glucagon secretion in Glp1r−/− mouse islets” value ([1]; 10 pmol/l, Glp1r−/− islets, 1 mmol/l glucose) of the same compound?
Answer: persisted

Question: And the “glucagonostatic effect in the presence of exendin(9–39)” value ([1]; 10 pmol/l, exendin(9–39) 1 μmol/l, 1 mmol/l glucose)?
Answer: retained their glucagonostatic effect

Question: What about the “inhibition of glucagon secretion” value ([1]; 30 pmol/l, 1 mmol/l glucose) of the same compound?
Answer: 55%

Question: What about the “change of glucagon secretion compared with 10 mmol/l glucose alone” value ([1]; 30 pmol/l, 10 mmol/l glucose) of the same compound?
Answer: −50%

Question: And the “glucagon secretion, % of that at 1 mmol/l glucose” value ([1]; 1000 pmol/l GLP-1(9–36) in the presence of REMD2.59 100 nmol/l)?
Answer: 76±5%

Question: What about the “glucagonostatic effect in the presence of the PKA inhibitor 8-Br-Rp-cAMPS” value ([1]; 8-Br-Rp-cAMPS 10 μmol/l, 1 mmol/l glucose) of the same compound?
Answer: retains its glucagonostatic capacity

Question: What about the IC50 ([1]; 48 h) of the same compound?
Answer: 4 pM

Question: And the “inhibition of amino acid-induced glucagon secretion” value ([1]; AA 6 mmol/l (2 mmol/l each glutamine, alanine, arginine), 1 mmol/l glucose)?
Answer: −66%

Question: What about the “reduction of isoprenaline-stimulated glucagon secretion” value ([1]; in the presence of isoprenaline) of the same compound?
Answer: 75%

Question: What about the “inhibition of glucagon secretion” value ([1]; islets cultured overnight without PTX, 1 mmol/l glucose) of the same compound?
Answer: ~ 50%

Question: What about the “reduction of glucagon secretion evoked by 70 mmol/l [K+]o” value ([1]; membrane depolarisation, 70 mmol/l extracellular K+) of the same compound?
Answer: 60%

Question: And the “inhibitory effect on glucagon secretion after PTX pretreatment” value ([1]; overnight PTX 100 ng/ml, 1 mmol/l glucose)?
Answer: almost abolished

Question: And the “expected inhibition of glucagon secretion by circulating levels” value ([1]; ~30 pmol/l, from the dose–inhibition curves established in vitro)?
Answer: up to 80%

Question: What about the “reduction of depolarisation-induced P/Q-type Ca2+ channel-mediated Ca2+ entry” value [2] of the same compound?
Answer: 34±4%
